Assay results taken from PubChem BioAssay (NCI).
Where “and” joins values, the source holds several entries; their conditions need not be identical. Equal entries are not always repeated.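 96-well plates; 48 h exposure; 5 concentrations. Endpoints by linear interpolation between flanking doses. Not reached: highest tested concentration assigned. GI50: concentration for 50% inhibition of growth. At the TGI there is no net growth.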 Where a SMILES comes first, the peptide text is derived from it. [ ]: non-standard residue; d: D form. The star is where a group is joined. NMeF = CN[CH](Cc1ccccc1)C(=O)O; NMeV = CN[CH](C(=O)O)C(C)C; ΔPro = O=C(O)[CH]1C=CCN1; Boc = CC(C)(C)OC(=O)*; OBn = c1ccc(CO*)cc1

Legend:
Experiment in all cases: NCI tumour cell line growth inhibition, 48 h
CCRF-CEM leukemia = tested on: CCRF-CEM leukemia
HL-60(TB) leukemia = tested on: HL-60(TB) leukemia
HOP-62 NSCLC = tested on: HOP-62 NSCLC
LOX IMVI melanoma = tested on: LOX IMVI melanoma
MDA-MB-231 breast = tested on: MDA-MB-231 breast
NCI-H226 lung = tested on: NCI-H226 lung
NCI/ADR-RES ovarian = tested on: NCI/ADR-RES ovarian
OVCAR-4 ovarian = tested on: OVCAR-4 ovarian
OVCAR-5 ovarian = tested on: OVCAR-5 ovarian
RPMI-8226 leukemia = tested on: RPMI-8226 leukemia
SK-MEL-5 melanoma = tested on: SK-MEL-5 melanoma
T-47D breast = tested on: T-47D breast
TK-10 renal = tested on: TK-10 renal
XF 498 CNS = tested on: XF 498 CNS

Compound	TGI (CCRF-CEM leukemia) [µM]	TGI (HL-60(TB) leukemia)	TGI (HOP-62 NSCLC) [µM]	TGI (LOX IMVI melanoma)	TGI (MDA-MB-231 breast) [µM]	TGI (NCI-H226 lung) [µM]	TGI (NCI/ADR-RES ovarian) [µM]	TGI (OVCAR-4 ovarian) [µM]	TGI (OVCAR-5 ovarian) [µM]	TGI (RPMI-8226 leukemia) [µM]	TGI (SK-MEL-5 melanoma) [µM]	TGI (T-47D breast) [µM]	TGI (TK-10 renal) [µM]	TGI (XF 498 CNS)	GI50 (CCRF-CEM leukemia)	GI50 (LOX IMVI melanoma)	GI50 (RPMI-8226 leukemia)	GI50 (XF 498 CNS)
c1ccc2sc(SSSc3nc4ccccc4s3)nc2c1	> 100	> 100 µM	> 100	49 µM	> 100	> 100	> 100	> 100	> 100	> 100	> 100	> 100	> 100					
Cn1nnc2c(C(N)=S)ncn2c1=O	> 100	> 100 µM	> 100	> 100 µM	> 100	> 100	> 100	> 100	> 100	> 100	> 100	> 100	> 100					
Cc1ccc2[nH]c3c(c(=O)n(C)c(=O)n3C)c2c1	> 100	> 100 µM	> 100	> 100 µM	> 100	> 100	> 100	> 100	> 100	> 100	> 100	> 100	> 100					
C=C1c2nc3ccccc3n2C=C(c2ccccc2)N1c1ccc(Cl)cc1	> 100	> 100 µM	> 63.3	> 100 µM	51.8	> 87.1	> 77.7	61.6	> 100	> 85	> 100	> 100	57.2					
O=C1C=C(c2ccccc2)OC1C1Sc2ccccc2NC1=O (centres undefined)	> 24.4	13.6 µM	> 19.8	> 64.6 µM	> 57.1	> 83.3	> 80.9	> 100	> 100	12.5	38.2	> 100	> 27.9					
O=Cc1ccc2ccocc1-2	> 100	> 100 µM	> 100	> 100 µM	> 100	> 100	> 100	> 100	> 100	> 100	> 100	> 100	> 100					
C/C(=N\NC(=O)c1ccncc1)c1sc(-n2nc(-c3ccccc3)cc2-c2ccccc2)nc1C	> 31.6	> 31.6 µM	> 31.6	> 100 µM	> 100	> 100	> 100	> 31.6	> 31.6	> 31.6	> 31.6	> 31.6	> 31.6					
CC(=O)OCC1(C)C(O)CCC2(C)C1CCC1CC3CC12CCC3(O)CO (centres undefined)	> 100	> 100 µM	> 100	> 100 µM	> 100	> 100	> 100	> 100	> 100	> 100	> 100	> 100	> 100					
C=C(C)[C@H]1CC[C@@]23O[C@@H]2[C@@H](C[C@@]2(C)CC(=O)[C@H](CC(=O)C1)O2)OC(=O)[C@@]12CC[C@H](C(=C)C)CC(=O)C[C@H]4O[C@](C)(CC4=O)C[C@@H](OC3=O)[C@@H]1O2	> 100	> 100 µM	> 100	> 100 µM	> 100	> 100	> 100	> 100	> 100	> 100	> 100	> 100	> 100					
Cc1ccc(N2C(=O)C3c4[nH]c5ccc(C)cc5c4C4CCC(C(C)(C)C)CC4C3C2=O)cc1 (centres undefined)	26.7	82.8 µM	24.5	55.6 µM	26.7	48.7	60.2	20.9	30.8	46.3	> 100	25.9	39.5					
O=C(O)C1C=CCN1C(=O)C1C=CCN1C(=O)C1C=CCN1 (centres undefined) (H-[ΔPro]-[ΔPro]-[ΔPro]-OH; configuration not given here)	> 100	> 100 µM	> 100	> 100 µM	> 100	> 100	> 100	> 100	> 100	> 100	> 100	> 100	> 100					
CSC1=NN(C(C)=O)C(C(OC(C)=O)C(OC(C)=O)C(OC(C)=O)C(COC(C)=O)OC(C)=O)S1 (centres undefined)	> 100	> 100 µM	> 100	> 100 µM	> 100	> 100	> 100	> 100	> 100	> 100	> 100	> 100	> 100					
COC(=O)[C@@H]1CN(C(=O)CCc2ccccc2)C(=O)N1	> 100	> 100 µM	> 100	> 100 µM	> 100	> 100	> 100	> 100	> 100	> 100	> 100	> 100	> 100					
O=C1c2ccccc2C(=O)N1CCCOCc1c[nH]c(=O)[nH]c1=O	> 100	> 100 µM	> 100	> 100 µM		> 100		> 100	> 100	> 100	> 100		> 100	> 100 µM				
Nc1nc(SCC(=O)c2ccccc2)c2[nH]cnc2n1	> 100	> 100 µM	> 100	> 100 µM		> 100		> 100	> 100	> 100	> 100		> 100	> 100 µM				
CN(c1ccccc1)c1cc2ccccc2nn1	> 100	> 100 µM	> 100	> 100 µM		> 100		> 100	> 100	> 100	> 100		> 100	> 100 µM				
CC1=NN(c2ccc(S(=O)(=O)O)cc2)C2(C1)C(Cl)C(=O)N2c1nc2ccccc2s1 (centres undefined)	> 100	> 100 µM	> 100	> 100 µM	> 100	> 100	> 100	> 100	> 100	> 100	> 100	> 100	> 100					

Compound	TGI (CCRF-CEM leukemia) [µM]	TGI (HL-60(TB) leukemia)	TGI (HOP-62 NSCLC) [µM]	TGI (LOX IMVI melanoma)	TGI (MDA-MB-231 breast) [µM]	TGI (NCI-H226 lung) [µM]	TGI (NCI/ADR-RES ovarian) [µM]	TGI (OVCAR-4 ovarian) [µM]	TGI (OVCAR-5 ovarian) [µM]	TGI (RPMI-8226 leukemia) [µM]	TGI (SK-MEL-5 melanoma) [µM]	TGI (T-47D breast) [µM]	TGI (TK-10 renal) [µM]	TGI (XF 498 CNS)	GI50 (CCRF-CEM leukemia)	GI50 (LOX IMVI melanoma)	GI50 (RPMI-8226 leukemia)	GI50 (XF 498 CNS)
CCc1n[nH]c(=O)n1CC	> 100	> 100 µM	> 100	> 100 µM	> 100	> 100	> 100	> 100	> 100	> 100	> 100	> 100	> 100					
COc1ccc(-c2sc(Br)c3c2C(=O)C2OC(=O)NC32)cc1OC (centres undefined)	> 100	> 100 µM	> 100	> 100 µM	> 100	> 100	> 100	> 100	> 100	> 100	> 100	> 100	> 100					
COC(=O)[C@@H]1C[C@@H](O)CN1C(=O)c1ccc([N+](=O)[O-])cc1[N+](=O)[O-]	> 100	> 100 µM	> 100	> 100 µM	> 100	> 100	> 100	> 100	> 100	> 100	> 100	> 100	> 100					
CCN(CC)C(=O)CCn1cc(F)c(=O)[nH]c1=O	> 100	> 100 µM	> 100	> 100 µM		> 100		> 100	> 100	> 100	> 100		> 100	> 100 µM				
Cc1c(C(=O)c2ccccc2)[n+](=O)c2cc(Cl)c(Cl)cc2n1[O-]	71.5	4.82 µM	29.7	15.8 µM	25.9	7.59	38	16.5	31.8	19.8	28.6	14	23.9					
CCN(CC)C1Oc2cc3c(cc2C(c2cc(OC)c(O)c(OC)c2)C1C)OCO3 (centres undefined)	42.1	11.9 µM	39.6	29 µM	73.7	52.3	37.4	> 82.2	21.7	34.7	30.7	> 73.4	72.5					
O=C1CSC(c2ccccc2O)N1c1ccc2c(c1)Oc1c(Cl)c3c(c(Cl)c1=N2)Oc1cc(N2C(=O)CSC2c2ccccc2O)ccc1N=3 (centres undefined)	> 100	> 100 µM	> 100	> 100 µM	> 100	> 100	> 100	> 100	> 100	> 100	> 100	> 100	> 100					
C/C(=C\COP(=O)(O)OP(=O)(O)O)CCCCCCOCc1ccccc1	> 100	> 100 µM	> 100	> 100 µM	> 100	> 100	> 100	> 100	> 100	> 100	> 100	> 100	> 100					
COc1ccccc1-n1nnc2c(N)nc(N)nc21	> 100	> 100 µM	> 100	> 100 µM	> 100	> 100	> 100	> 100	> 100	> 100	> 100	> 100	> 100					
C=C(COCO)C(C)=O	9.64	5.78 µM	> 68.5	31.7 µM	33.6	> 100	51.5	37.2	35.3	5.64	31.5	36.7	26.9					
CC(C)C(NC(=O)OC(C)(C)C)C(=O)N(C)C(Cc1ccccc1)C(=O)N(C)C(C(=O)OCc1ccccc1)C(C)C (stereo not drawn) (Boc-Val-[NMeF]-[NMeV]-OBn; configuration not given here)	> 100	> 100 µM and 53.9 µM	> 100	35.7 µM and > 100 µM		> 100				> 100	44.6		> 100	9.63 µM and 74.8 µM	17.8 µM and 39.1 µM	16.3 µM and 62.9 µM	10.8 µM and 25.3 µM	3.54 µM and 28.6 µM
O=C1Nc2ccc(Br)cc2/C1=N/S(=O)(=O)O	35.6	46.7 µM	> 100	28 µM	36	> 100	> 100	44.1	79.3	47.6	29.6	> 100	57.1					
CCCCC(=O)/C=c1/cc(C)[nH]c2cccc3cnn1c32	> 100	> 100 µM	> 100	> 100 µM	> 100	> 100	> 100	> 100	> 100	> 100	> 100	> 100	> 100					
Cn1c(=O)c2ccccc2[n+]2c(-c3cccc([N+](=O)[O-])c3)csc12	> 100	62.8 µM	> 100	> 100 µM	> 100	> 100	83.5	> 100	> 100	> 100	> 100	> 100	> 100					
CCCC(=O)OCC1OC(n2cc(F)c(=O)[nH]c2=O)CC1O (centres undefined)	> 10	> 10 µM	> 10	> 8.79 µM	> 10	> 10	> 10	> 10	> 10	> 10	1.35	> 10	> 10					
O[C@@]1(C#Cc2ccc3c(c2)OCO3)CCC[C@H]1NCc1ccccc1	99.7	39.1 µM	78.2	30.9 µM	> 100	51.2	40.6	> 100	> 100	56	36.2	41.2	70.6					
COc1ccc(N2C(=O)C(Cl)C2c2cc3cc(Br)ccc3nc2Cl)cc1 (centres undefined)	14.7	14.5 µM	20.4	4.41 µM	9.1	13.2	14.1	9.68	> 25	21.6	8.63	> 25	15.5					
